Test [1] deals with T1, S. aureus DNA gyrase (Staphylococcus aureus, UniProt P0A0K8+P20831). As to conditions: read-out: IC50 for Gyrase; inhibition of DNA supercoiling, 30 min at 37 °C.
Description: (§1) The assay was performed using S. aureus DNA Gyrase Supercoiling kit (Inspiralis). […] Samples were vortexed, centrifuged, and 20 µL of the aqueous phase of each sample was loaded onto a 1% agarose gel and left for 30 min prior to electrophoresis to allow diffusion of salt. Electrophoresis was conducted in TAE buffer for 3 h at 50 V. Gels were stained with ethidium bromide and visualized under UV light in a transilluminator (ChemiDoc MP, Bio Rad, Warsaw, Poland).
The target in test [2] is T2, S. aureus topoisomerase IV (Staphylococcus aureus, UniProt P0C1S7+P0C1U9).
T2 construct: purchased Inspiralis
Description: S. aureus topoisomerase IV decatenation assay. The test is classed as biochemical. How it is done: The assay was performed using S. aureus topoisomerase IV […] kit (Inspiralis). Kinetoplast DNA (kDNA) was the substrate for topoisomerase IV.

Test [3] relates to S. epidermidis KR 4313 834/19. The test can be described thus: MIC, clinical S. epidermidis strain. The test is classed as cell-based. Particulars: Staphylococcus epidermidis, KR4313834/19, quinolone-susceptible, 18 h of treatment.
In test [4] the test system is standard staphylococci (S. aureus, S. epidermidis). The test can be described thus: MIC, standard Gram-positive strains as a group. As to conditions: Staphylococcus aureus; range over standard Gram-positive strains; read-out: MIC against standard staphylococci. It counts as cell-based.
Test [5] deals with S. epidermidis KR 4243 829/19. Description: MIC, clinical S. epidermidis strain. It counts as cell-based. As to conditions: Staphylococcus epidermidis, KR4243829/19, quinolone-susceptible, 18 h of treatment.
In test [6] the test system is S. epidermidis KR 4047 825/19. Description: MIC, clinical S. epidermidis strain. The test is classed as cell-based. As to conditions: Staphylococcus epidermidis, KR4047825/19, quinolone-resistant, 18 h of treatment.
The subject of another test is M. tuberculosis H37Rv. The test can be described thus: MABA (microplate Alamar blue assay) MIC. As to conditions: Mycobacterium tuberculosis, 336 h, 2 weeks of treatment, read-out: MIC M. tuberculosis H37Rv. The test is classed as cell-based. Background: The colour change of resazurin is a common sign of viable cells or microbes.
Test [7] has as its target T1, S. aureus DNA gyrase. The test can be described thus: biochemical.
Description: as §1
Another test relates to P. aeruginosa ATCC 27853. Description: MIC, twofold microdilution, standard strain. It counts as cell-based. Particulars: Pseudomonas aeruginosa, ATCC27853; 18 h of treatment; read-out: MIC P. aeruginosa ATCC 27853. Background: Broth dilution looks for growth in wells or tubes with falling amounts of substance.
The subject of a further test is HaCaT cells. The test can be described thus: MTT assay, HaCaT normal cells. It counts as cell-based. Particulars: human immortal keratinocyte cell line, 72 h, mean ± SD. For orientation: Formazan colour is commonly taken as a measure of viable cells.
The subject of another test is M. tuberculosis strains. Description: MABA MIC, mycobacterial strains as a group. The test is classed as cell-based. Particulars: Mycobacterium tuberculosis, read-out: MIC antimycobacterial (strain not specified).
Test [8] deals with S. epidermidis T 5399 848/19. Description: MIC, clinical S. epidermidis strain. Particulars: Staphylococcus epidermidis, T5399848/19, quinolone-susceptible, 18 h of treatment. It counts as cell-based.
For test [9], the system named is S. epidermidis KR 4358/2 840/19. Description: MIC, clinical S. epidermidis strain. It counts as cell-based. As to conditions: Staphylococcus epidermidis, KR4358/2840/19; clinical S. epidermidis, quinolone-susceptible, 18 h of treatment; read-out: MIC KR 4358/2 840/19.
For another test, the system named is SW620 cells. The test can be described thus: MTT assay, SW620. The test is classed as cell-based, human. As to conditions: for IC50: Homo sapiens, SW-620, 72 h, human metastatic colon cancer, 72 h, MTT, mean ± SD; for SI SW620: SI = IC50 for normal cell line (HaCaT)/IC50 cancer cell line.
The test system of another test is S. aureus NCTC 4163. The test can be described thus: MIC, twofold microdilution, standard strain. Particulars: Staphylococcus aureus, NCTC4163; 18 h of treatment; read-out: MIC S. aureus NCTC 4163. It counts as cell-based.
The next test has as its system S. aureus ATCC 6538. Description: MIC, twofold microdilution, standard strain. The test is classed as cell-based. Particulars: Staphylococcus aureus, ATCC6538; 18 h of treatment; read-out: MIC S. aureus ATCC 6538.
Test [10] relates to quinolone-susceptible clinical coagulase-negative staphylococci. The test can be described thus: MIC, quinolone-susceptible clinical isolates as a group. The test is classed as cell-based. Particulars: Staphylococcus epidermidis; five quinolone-susceptible isolates; read-out: MIC against quinolone-susceptible clinical isolates.
The next test deals with S. aureus ATCC 29213. Description: MIC, twofold microdilution, standard strain. It counts as cell-based. As to conditions: Staphylococcus aureus, ATCC29213; 18 h of treatment; read-out: MIC S. aureus ATCC 29213.
For another test, the system named is SW480 cells. Description: MTT assay, SW480. As to conditions: for IC50: Homo sapiens, SW480, 72 h, human primary colon cancer, 72 h, MTT, mean ± SD; for SI SW480: SI = IC50 for normal cell line (HaCaT)/IC50 cancer cell line. The test is classed as cell-based, human.
The test system of the next test is S. aureus ATCC 25923. The test can be described thus: MIC, twofold microdilution, standard strain. As to conditions: Staphylococcus aureus, ATCC25923; 18 h of treatment; read-out: MIC S. aureus ATCC 25923. The test is classed as cell-based.
Test [11] has as its system M. tuberculosis Spec. 192 (Sensitive to Tuberculostatics). Description: MABA (microplate Alamar blue assay) MIC. It counts as cell-based. As to conditions: Mycobacterium tuberculosis, 336 h, read-out: MIC M. tuberculosis Spec. 192 (Sensitive to Tuberculostatics).
Test [12] deals with S. epidermidis ATCC 12228. The test can be described thus: MIC, twofold microdilution, standard strain. As to conditions: Staphylococcus epidermidis, ATCC12228; 18 h of treatment; read-out: MIC S. epidermidis ATCC 12228. The test is classed as cell-based.
The test system of a further test is E. coli ATCC 25922. The test can be described thus: MIC, twofold microdilution, standard strain. The test is classed as cell-based, Escherichia coli. As to conditions: for MIC: Escherichia coli, read-out: MIC E. coli ATCC 25922.
The subject of test [13] is S. epidermidis ATCC 35984. Description: MIC, twofold microdilution, standard strain. The test is classed as cell-based. As to conditions: Staphylococcus epidermidis, ATCC35984; 18 h of treatment; read-out: MIC S. epidermidis ATCC 35984.
A further test concerns PC3 cells. The test can be described thus: MTT assay, PC3. The test is classed as cell-based, human. As to conditions: for IC50: human metastatic prostate cancer, 72 h, MTT, mean ± SD; for SI PC3: SI = IC50 for normal cell line (HaCaT)/IC50 cancer cell line.
The test system of test [14] is S. epidermidis T 5253 845/19. Description: MIC, clinical S. epidermidis strain. It counts as cell-based. Particulars: Staphylococcus epidermidis, T5253845/19, quinolone-resistant, 18 h of treatment.
Test [15] deals with S. epidermidis T 5501 851/19. The test can be described thus: MIC, clinical S. epidermidis strain. It counts as cell-based. Particulars: Staphylococcus epidermidis, T5501851/19, read-out: MIC T 5501 851/19, quinolone-susceptible, 18 h of treatment.
In test [16] the test system is quinolone-resistant isolates (KR 4047 and T5253). Description: MIC, quinolone-resistant clinical isolates as a group. It counts as cell-based. As to conditions: Staphylococcus epidermidis, read-out: MIC against quinolone-resistant clinical isolates.
For test [17], the system named is SW480, SW620, and PC3 cancer cell lines. The test can be described thus: MTT assay, cancer cell lines as a group. It counts as cell-based, human. As to conditions: Homo sapiens, 72 h, all three cancer cell lines (SW480, SW620, PC3), read-out: IC50 against all tested cancer cell lines.

Each structure is given as a SMILES string. Values after ≈ are worked out from the molar mass of the structure shown. Like-named read-outs stand apart in the source and are kept apart here.

T1 sequence (P20831 whole entry): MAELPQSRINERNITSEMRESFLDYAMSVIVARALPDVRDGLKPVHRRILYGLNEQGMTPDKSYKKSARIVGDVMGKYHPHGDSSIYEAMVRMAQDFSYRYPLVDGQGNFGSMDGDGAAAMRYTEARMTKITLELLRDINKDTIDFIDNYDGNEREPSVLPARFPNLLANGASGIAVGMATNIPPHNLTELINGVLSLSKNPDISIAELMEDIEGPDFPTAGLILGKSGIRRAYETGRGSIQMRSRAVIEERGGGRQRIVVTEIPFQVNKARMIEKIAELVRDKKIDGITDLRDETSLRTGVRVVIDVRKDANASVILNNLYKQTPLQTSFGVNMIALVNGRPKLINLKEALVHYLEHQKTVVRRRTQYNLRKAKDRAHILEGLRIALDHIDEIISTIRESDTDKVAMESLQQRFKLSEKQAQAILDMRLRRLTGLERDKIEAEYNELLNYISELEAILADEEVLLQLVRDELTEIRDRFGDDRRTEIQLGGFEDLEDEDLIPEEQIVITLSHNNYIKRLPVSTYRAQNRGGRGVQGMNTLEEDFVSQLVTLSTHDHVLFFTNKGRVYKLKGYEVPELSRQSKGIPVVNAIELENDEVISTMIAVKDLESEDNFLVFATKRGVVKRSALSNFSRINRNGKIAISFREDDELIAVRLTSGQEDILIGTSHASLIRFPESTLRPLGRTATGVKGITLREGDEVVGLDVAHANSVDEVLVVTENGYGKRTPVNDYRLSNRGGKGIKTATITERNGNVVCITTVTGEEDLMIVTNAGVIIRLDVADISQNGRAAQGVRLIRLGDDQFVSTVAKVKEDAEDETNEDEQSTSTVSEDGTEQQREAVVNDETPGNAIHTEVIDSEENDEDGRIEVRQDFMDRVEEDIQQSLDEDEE
T1 sequence (P0A0K8 whole entry): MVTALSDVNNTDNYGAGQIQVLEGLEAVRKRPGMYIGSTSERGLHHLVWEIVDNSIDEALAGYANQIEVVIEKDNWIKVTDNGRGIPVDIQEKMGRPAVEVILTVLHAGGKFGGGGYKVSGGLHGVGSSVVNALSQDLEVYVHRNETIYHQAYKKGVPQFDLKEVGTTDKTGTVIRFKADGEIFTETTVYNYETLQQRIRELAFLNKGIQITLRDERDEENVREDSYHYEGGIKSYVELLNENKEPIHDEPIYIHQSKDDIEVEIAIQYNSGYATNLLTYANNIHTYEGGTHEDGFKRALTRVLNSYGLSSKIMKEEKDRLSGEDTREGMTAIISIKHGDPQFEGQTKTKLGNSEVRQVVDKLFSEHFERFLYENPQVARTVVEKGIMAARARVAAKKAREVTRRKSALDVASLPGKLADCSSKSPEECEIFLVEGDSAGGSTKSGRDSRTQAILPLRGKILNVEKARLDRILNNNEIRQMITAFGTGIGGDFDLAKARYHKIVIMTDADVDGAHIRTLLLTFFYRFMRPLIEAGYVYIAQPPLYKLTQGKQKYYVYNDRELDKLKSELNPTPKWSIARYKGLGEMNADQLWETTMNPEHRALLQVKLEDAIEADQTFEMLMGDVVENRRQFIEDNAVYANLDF
T2 sequence (P0C1U9 whole entry): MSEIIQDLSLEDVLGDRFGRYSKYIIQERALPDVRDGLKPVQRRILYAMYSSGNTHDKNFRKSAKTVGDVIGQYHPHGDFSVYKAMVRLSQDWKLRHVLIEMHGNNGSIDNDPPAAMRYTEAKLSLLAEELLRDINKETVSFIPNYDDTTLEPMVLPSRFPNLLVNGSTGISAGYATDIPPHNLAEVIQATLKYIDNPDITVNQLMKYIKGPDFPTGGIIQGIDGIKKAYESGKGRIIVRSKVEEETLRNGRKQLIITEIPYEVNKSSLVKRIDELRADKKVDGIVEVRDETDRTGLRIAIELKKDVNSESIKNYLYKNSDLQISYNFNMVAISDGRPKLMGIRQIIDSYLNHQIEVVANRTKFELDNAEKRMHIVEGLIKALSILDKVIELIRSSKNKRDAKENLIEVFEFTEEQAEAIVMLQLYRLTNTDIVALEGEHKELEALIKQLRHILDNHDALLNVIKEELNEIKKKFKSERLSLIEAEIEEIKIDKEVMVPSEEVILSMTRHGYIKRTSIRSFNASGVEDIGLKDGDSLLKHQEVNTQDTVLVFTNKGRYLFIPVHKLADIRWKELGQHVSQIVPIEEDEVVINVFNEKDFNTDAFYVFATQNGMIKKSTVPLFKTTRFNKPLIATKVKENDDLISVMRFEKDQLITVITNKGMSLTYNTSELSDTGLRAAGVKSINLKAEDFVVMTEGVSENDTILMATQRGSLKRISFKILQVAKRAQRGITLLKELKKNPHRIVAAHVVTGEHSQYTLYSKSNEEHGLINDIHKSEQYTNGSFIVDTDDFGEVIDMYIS
T2 sequence (P0C1S7 whole entry): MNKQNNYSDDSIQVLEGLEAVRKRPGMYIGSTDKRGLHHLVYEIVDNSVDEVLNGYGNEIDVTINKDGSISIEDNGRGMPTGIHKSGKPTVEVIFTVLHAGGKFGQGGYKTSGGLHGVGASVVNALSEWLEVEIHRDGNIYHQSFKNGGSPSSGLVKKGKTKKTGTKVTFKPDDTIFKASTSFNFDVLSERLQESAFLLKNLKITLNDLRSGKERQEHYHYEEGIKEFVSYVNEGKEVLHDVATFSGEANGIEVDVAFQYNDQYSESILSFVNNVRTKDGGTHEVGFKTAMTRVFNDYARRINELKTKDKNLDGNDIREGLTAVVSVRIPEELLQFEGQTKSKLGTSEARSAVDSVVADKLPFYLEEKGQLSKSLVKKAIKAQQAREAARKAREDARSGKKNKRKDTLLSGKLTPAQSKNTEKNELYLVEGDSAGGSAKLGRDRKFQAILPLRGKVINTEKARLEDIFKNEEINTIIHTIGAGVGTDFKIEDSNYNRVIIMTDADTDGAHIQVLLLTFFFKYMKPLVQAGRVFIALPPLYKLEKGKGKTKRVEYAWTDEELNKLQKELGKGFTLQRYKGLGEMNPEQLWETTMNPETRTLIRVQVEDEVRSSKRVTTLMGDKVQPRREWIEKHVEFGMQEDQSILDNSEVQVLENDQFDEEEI

Usually IC50 stands for the point on the concentration scale where inhibition reaches its midpoint. With `CCC=CCC=CCC=CCC=CCC=CCC=CCCC(=O)N1CCN(c2cc3c(cc2F)c(=O)c(C(=O)O)cn3C2CC2)CC1` [Compound 8], the 50% inhibitory concentration (IC50) on S. aureus DNA gyrase [1] was more than 99.7 µM; in test [2] (read-out: IC50 for Topo IV, inhibition of kDNA decatenation, 30 min at 37 °C), more than 99.7 µM.
Take `COc1c(N2CC3CCCN(C(C)=O)C3C2)c(F)cc2c(=O)c(C(=O)O)cn(C3CC3)c12` (stereo not shown) [Compound 14m, 7-(1-Acetyl-octahydro-pyrrolo[3,4-b]pyridin-6-yl)-1-cyclopropyl-6-fluoro-8-methoxy-4-oxo-1,4-dihydro-quinoline-3-carboxylic acid]: the MIC was 0.5 µg/mL (≈ 1.13 µM) in test [3]; 0.25 to 1 µg/mL (≈ 0.564 to 2.25 µM) in test [4]; 0.5 µg/mL (≈ 1.13 µM) in test [5]; 32 µg/mL (≈ 72.2 µM) in test [6]; 64 µg/mL (≈ 144 µM) in the test on M. tuberculosis H37Rv; more than 512 µg/mL in the test on P. aeruginosa ATCC 27853. The MIC with M. tuberculosis strains (summary over strains) was determined as 64 µg/mL (≈ 144 µM); in test [8], 0.5 µg/mL (≈ 1.13 µM); in test [9] it was 0.5 µg/mL (≈ 1.13 µM); in the test with S. aureus NCTC 4163, 0.25 µg/mL (≈ 0.564 µM); in the test on S. aureus ATCC 6538 it was 0.25 µg/mL (≈ 0.564 µM); in test [10], 0.5 µg/mL (≈ 1.13 µM). Further, the MIC stood at 0.5 µg/mL (≈ 1.13 µM) in the test on S. aureus ATCC 29213; 0.25 µg/mL (≈ 0.564 µM) with S. aureus ATCC 25923; 64 µg/mL (≈ 144 µM) in test [11] (2 weeks of treatment); 0.5 µg/mL (≈ 1.13 µM) in test [12]; 8 µg/mL (≈ 18 µM) in the test with E. coli ATCC 25922 (ATCC25922, 18 h of treatment); 0.5 µg/mL (≈ 1.13 µM) in test [13]. Also, the MIC in [14] turned out to be 32 µg/mL (≈ 72.2 µM); in test [15], 0.5 µg/mL (≈ 1.13 µM). Also, the IC50 on S. aureus DNA gyrase [7] was 133 µM; with HaCaT cells it was 86.5 ± 2.1 µM; in test [2], 135 µM; in the test with SW620 cells it was 18.4 ± 3.2 µM; in the test with SW480 cells, 14.3 ± 3.2 µM; with PC3 cells (Homo sapiens, PC-3, 72 h), 12.5 ± 1.6 µM. Moreover, the “SI SW620” value with SW620 cells came out at 4.7. Also, in the test with SW480 cells, the “SI SW480” value came out at 6.0. For the same compound, the “MIC E. coli ATCC 25922” value against E. coli ATCC 25922 (18 h of treatment) fell in the range of 2 to 16 µg/mL. In addition, in the test with PC3 cells, the “SI PC3” value came to 6.9.
In the case of `CCCCCCCC(=O)N1CCCC2CN(c3c(F)cc4c(=O)c(C(=O)O)cn(C5CC5)c4c3OC)CC21` (stereo not shown) [Compound 15m, 1-Cyclopropyl-6-fluoro-8-methoxy-7-(1-octanoyl-octahydro-pyrrolo[3,4-b]pyridin-6-yl)-4-oxo-1,4-dihydro-quinoline-3-carboxylic acid], the MIC in test [3] is 8 µg/mL (≈ 15.2 µM); in [16], 8 µg/mL (≈ 15.2 µM); in [4], 4 to 8 µg/mL (≈ 7.58 to 15.2 µM); in test [5], 8 µg/mL (≈ 15.2 µM); in test [6], 8 µg/mL (≈ 15.2 µM); with M. tuberculosis H37Rv, 256 µg/mL (≈ 485 µM). In addition, the MIC was 512 µg/mL (≈ 970 µM) in the test with P. aeruginosa ATCC 27853; not below 128 µg/mL with M. tuberculosis strains; 4 µg/mL (≈ 7.58 µM) in test [8]; 8 µg/mL (≈ 15.2 µM) in test [9]; 4 µg/mL (≈ 7.58 µM) in the test with S. aureus NCTC 4163; 4 µg/mL (≈ 7.58 µM) with S. aureus ATCC 6538. Moreover, the MIC with S. aureus ATCC 29213 amounted to 4 µg/mL (≈ 7.58 µM); in the test with S. aureus ATCC 25923, 4 µg/mL (≈ 7.58 µM); in [11] it was 128 µg/mL (≈ 243 µM); in test [12] it was 4 µg/mL (≈ 7.58 µM); in the test with E. coli ATCC 25922 (ATCC25922, 18 h) it was 128 µg/mL (≈ 243 µM); in [13], 8 µg/mL (≈ 15.2 µM). Also, the MIC in test [14] and in test [15] was 8 µg/mL (≈ 15.2 µM) each time. Further, the half-maximal inhibitory concentration (IC50) with HaCaT cells was 87.2 ± 3.6 µM; in test [17], less than 5 µM; in the test on SW620 cells, 4.7 ± 1.5 µM; in the test with SW480 cells, 3.2 ± 0.8 µM; with PC3 cells (Homo sapiens, PC-3, 72 h), less than 5 µM; in the test on PC3 cells, 3.1 ± 0.9 µM. The “SI SW620” value with SW620 cells stood at 18.6. Further, in the test with SW480 cells, the “SI SW480” value amounted to 27.3. Further, the “SI PC3” value in the test with PC3 cells was 28.1.
